Source: patent US20230085307A1, “PYRIDAZINONE COMPOUND AND HERBICIDE” (NISSAN CHEMICAL CORPORATION, priority 2019, published 2023)

Experiments:
green foxtail [1] = assay: Test Example 5: herbicidal effect by foliage application, plastic box (Table 20, symbol G); type: in vivo, green foxtail (Setaria viridis); conditions: foliage application after 14-day growth, evaluated three weeks after application
Summary of the method: (§1)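 Sow seeds spot-wise in sterilized diluvial soil; cover with ~1.5 cm soil. Grow 14 days in greenhouse, 25° C. to 30° C. Spray foliage with emulsion diluted to predetermined amount. Rate effect after 3 weeks.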

green foxtail [2] = assay: Test Example 4: herbicidal effect by soil treatment (Table 19, symbol G); type: in vivo, green foxtail (Setaria viridis); conditions: amount of applied herbicide 320 g/ha
Summary of the method: (§2)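 Applied as a water-diluted emulsion, the compound was sprayed onto soil covering newly sown seeds. Evaluation came three weeks after application, in a greenhouse held at 25° C. to 30° C.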

late watergrass = assay: Test Example 1: herbicidal activity, application before weed generation under submerged conditions (Table 16, symbol A); type: in vivo, late watergrass (Echinochloa oryzicola); conditions: amount of applied herbicide 320 g/ha
Summary of the method: (§3)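 Submerged Wagner pots (alluvial soil, 4 cm water) sown with weed seeds and planted with 2.5-leaf rice seedlings; emulsifiable concentrate diluted in water applied to water surface on sowing day. Held in greenhouse at 25-30 °C; injury scored 0-5 by herbicidal rate after three weeks.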

southern crabgrass [3] = assay: Test Example 5: herbicidal effect by foliage application, plastic box (Table 20, symbol F); type: in vivo, southern crabgrass (Digitaria ciliaris); conditions: foliage application after 14-day growth, evaluated three weeks after application
Summary of the method: as §1

blackgrass [4] = assay: Test Example 5: herbicidal effect by foliage application, plastic box (Table 20, symbol J); type: in vivo, blackgrass (Alopecurus myosuroides); conditions: foliage application after 14-day growth, evaluated three weeks after application
Summary of the method: as §1

oval-leafed pondweed = assay: Test Example 1: herbicidal activity, application before weed generation under submerged conditions (Table 16, symbol C); type: in vivo, oval-leafed pondweed (Monochoria vaginalis); conditions: amount of applied herbicide 320 g/ha
Summary of the method: as §3

Chinese sprangletop = assay: Test Example 3: herbicidal effect by foliage application, Wagner pot (Table 18, symbol D); type: in vivo, chinese sprangletop (Leptochloa chinensis); conditions: 320 g/ha
Summary of the method: (§4)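 Plants were sown in alluvial soil held under 0.1–0.5 cm standing water and grown 14 days in a greenhouse at 25–30 °C. An emulsifiable formulation, water-diluted to the set dose, was then sprayed onto the foliage, and effects were scored three weeks later using previously defined criteria.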

rice flat sedge = assay: Test Example 3: herbicidal effect by foliage application, Wagner pot (Table 18, symbol E); type: in vivo, rice flat sedge (Cyperus iria); conditions: 320 g/ha
Summary of the method: as §4

Japanese bulrush = assay: Test Example 1: herbicidal activity, application before weed generation under submerged conditions (Table 16, symbol B); type: in vivo, Japanese bulrush (Schoenoplectus juncoides); conditions: amount of applied herbicide 320 g/ha
Summary of the method: as §3

chickweed [5] = assay: Test Example 5: herbicidal effect by foliage application, plastic box (Table 20, symbol P); type: in vivo, common chickweed (Stellaria media); conditions: foliage application after 14-day growth, evaluated three weeks after application
Summary of the method: as §1

blackgrass [6] = assay: Test Example 4: herbicidal effect by soil treatment (Table 19, symbol J); type: in vivo, blackgrass (Alopecurus myosuroides); conditions: amount of applied herbicide 320 g/ha
Summary of the method: as §2

windgrass [7] = assay: Test Example 5: herbicidal effect by foliage application, plastic box (Table 20, symbol L); type: in vivo, windgrass (Apera spica-venti); conditions: foliage application after 14-day growth, evaluated three weeks after application
Summary of the method: as §1

windgrass [8] = assay: Test Example 4: herbicidal effect by soil treatment (Table 19, symbol L); type: in vivo, windgrass (Apera spica-venti); conditions: amount of applied herbicide 320 g/ha
Summary of the method: as §2

redroot pigweed [9] = assay: Test Example 5: herbicidal effect by foliage application, plastic box (Table 20, symbol N); type: in vivo, redroot pigweed (Amaranthus retroflexus); conditions: foliage application after 14-day growth, evaluated three weeks after application
Summary of the method: as §1

persian speedwell [10] = assay: Test Example 5: herbicidal effect by foliage application, plastic box (Table 20, symbol R); type: in vivo, Persian speedwell (Veronica persica); conditions: foliage application after 14-day growth, evaluated three weeks after application
Summary of the method: as §1

barnyard grass [11] = assay: Test Example 4: herbicidal effect by soil treatment (Table 19, symbol H); type: in vivo, barnyard grass (Echinochloa crus-galli); conditions: amount of applied herbicide 320 g/ha
Summary of the method: as §2

wild oat [12] = assay: Test Example 5: herbicidal effect by foliage application, plastic box (Table 20, symbol I); type: in vivo, wild oat (Avena fatua); conditions: foliage application after 14-day growth, evaluated three weeks after application
Summary of the method: as §1

lambsquarters [13] = assay: Test Example 4: herbicidal effect by soil treatment (Table 19, symbol O); type: in vivo, lambsquarters (Chenopodium album); conditions: amount of applied herbicide 320 g/ha
Summary of the method: as §2

persian speedwell [14] = assay: Test Example 4: herbicidal effect by soil treatment (Table 19, symbol R); type: in vivo, Persian speedwell (Veronica persica); conditions: amount of applied herbicide 320 g/ha
Summary of the method: as §2

barnyard grass [15] = assay: Test Example 5: herbicidal effect by foliage application, plastic box (Table 20, symbol H); type: in vivo, barnyard grass (Echinochloa crus-galli); conditions: foliage application after 14-day growth, evaluated three weeks after application
Summary of the method: as §1

southern crabgrass [16] = assay: Test Example 4: herbicidal effect by soil treatment (Table 19, symbol F); type: in vivo, southern crabgrass (Digitaria ciliaris); conditions: amount of applied herbicide 320 g/ha
Summary of the method: as §2

barnyard grass [17] = assay: Test Example 3: herbicidal effect by foliage application, Wagner pot (Table 18, symbol H); type: in vivo, barnyard grass (Echinochloa crus-galli); conditions: 320 g/ha
Summary of the method: as §4

wild oat [18] = assay: Test Example 4: herbicidal effect by soil treatment (Table 19, symbol I); type: in vivo, wild oat (Avena fatua); conditions: amount of applied herbicide 320 g/ha
Summary of the method: as §2

chickweed [19] = assay: Test Example 4: herbicidal effect by soil treatment (Table 19, symbol P); type: in vivo, common chickweed (Stellaria media); conditions: amount of applied herbicide 320 g/ha
Summary of the method: as §2

lambsquarters [20] = assay: Test Example 5: herbicidal effect by foliage application, plastic box (Table 20, symbol O); type: in vivo, lambsquarters (Chenopodium album); conditions: foliage application after 14-day growth, evaluated three weeks after application
Summary of the method: as §1

Italian ryegrass [21] = assay: Test Example 4: herbicidal effect by soil treatment (Table 19, symbol K); type: in vivo, Italian ryegrass (Lolium multiflorum); conditions: amount of applied herbicide 320 g/ha
Summary of the method: as §2

Italian ryegrass [22] = assay: Test Example 5: herbicidal effect by foliage application, plastic box (Table 20, symbol K); type: in vivo, Italian ryegrass (Lolium multiflorum); conditions: foliage application after 14-day growth, evaluated three weeks after application
Summary of the method: as §1

velvetleaf [23] = assay: Test Example 5: herbicidal effect by foliage application, plastic box (Table 20, symbol M); type: in vivo, velvetleaf (Abutilon theophrasti); conditions: foliage application after 14-day growth, evaluated three weeks after application
Summary of the method: as §1

redroot pigweed [24] = assay: Test Example 4: herbicidal effect by soil treatment (Table 19, symbol N); type: in vivo, redroot pigweed (Amaranthus retroflexus); conditions: amount of applied herbicide 320 g/ha
Summary of the method: as §2

velvetleaf [25] = assay: Test Example 4: herbicidal effect by soil treatment (Table 19, symbol M); type: in vivo, velvetleaf (Abutilon theophrasti); conditions: amount of applied herbicide 320 g/ha
Summary of the method: as §2

[26] = amount of applied herbicide 320 g/ha

SMILES | Herbicidal effect by soil treatment, G: green foxtail (green foxtail [2]) | Herbicidal effect, A: late watergrass (late watergrass) | Herbicidal effect, C: oval-leafed pondweed (oval-leafed pondweed) | herbicidal effect on Chinese sprangletop (D) (Chinese sprangletop) | herbicidal effect on rice flat sedge (E) (rice flat sedge) | Herbicidal effect, B: Japanese bulrush (Japanese bulrush) | Herbicidal effect by soil treatment, J: blackgrass (blackgrass [6]) | Herbicidal effect by soil treatment, L: windgrass (windgrass [8]) | Herbicidal effect by soil treatment, H: barnyard grass (barnyard grass [11]) | Herbicidal effect by soil treatment, O: lambsquarters (lambsquarters [13]) | Herbicidal effect by soil treatment, R: persian speedwell (persian speedwell [14]) | Herbicidal effect by soil treatment, F: southern crabgrass (southern crabgrass [16]) | herbicidal effect on barnyard grass (H) (barnyard grass [17]) | Herbicidal effect by soil treatment, I: wild oat (wild oat [18]) | Herbicidal effect by soil treatment, P: chickweed (chickweed [19]) | Herbicidal effect by soil treatment, K: Italian ryegrass (Italian ryegrass [21]) | Herbicidal effect by soil treatment, N: redroot pigweed (redroot pigweed [24]) | Herbicidal effect by soil treatment, M: velvetleaf (velvetleaf [25]) | further results
CCCC(=O)Oc1c(C)nn(C)c(=O)c1-c1c(-c2ccc(OC(F)(F)F)cc2)sc2c(F)cccc12 [4-049] | 0 (Herbicidal rate of 5% or less (almost no effect)) | 3 (Herbicidal rate of 40% or more and less than 70%) | 0 (Herbicidal rate of 5% or less (almost no effect)) | 3 (Herbicidal rate of 40% or more and less than 70%) | 5 (Herbicidal rate of 90% or more (almost completely withered)) | 0 (Herbicidal rate of 5% or less (almost no effect)) | 0 (Herbicidal rate of 5% or less (almost no effect)) | 0 (Herbicidal rate of 5% or less (almost no effect)) | 0 (Herbicidal rate of 5% or less (almost no effect)) | 3 (Herbicidal rate of 40% or more and less than 70%) | 4 (Herbicidal rate of 70% or more and less than 90%) | 0 (Herbicidal rate of 5% or less (almost no effect)) | 5 (Herbicidal rate of 90% or more (almost completely withered)) | 0 (Herbicidal rate of 5% or less (almost no effect)) | 3 (Herbicidal rate of 40% or more and less than 70%) | 0 (Herbicidal rate of 5% or less (almost no effect)) | 4 (Herbicidal rate of 70% or more and less than 90%) | 0 (Herbicidal rate of 5% or less (almost no effect)) | herbicidal effect on G: green foxtail (evaluation grade 0-5) (green foxtail [1]; 320 g/ha): 4 (Herbicidal rate of 70% or more and less than 90%); herbicidal effect on F: southern crabgrass (evaluation grade 0-5) (southern crabgrass [3]; 320 g/ha): 0 (Herbicidal rate of 5% or less (almost no effect)); herbicidal effect on J: blackgrass (evaluation grade 0-5) (blackgrass [4]; 320 g/ha): 0 (Herbicidal rate of 5% or less (almost no effect)); herbicidal effect on P: chickweed (evaluation grade 0-5) (chickweed [5]; 320 g/ha): 5 (Herbicidal rate of 90% or more (almost completely withered)); herbicidal effect on L: windgrass (evaluation grade 0-5) (windgrass [7]; 320 g/ha): 0 (Herbicidal rate of 5% or less (almost no effect)); herbicidal effect on N: redroot pigweed (evaluation grade 0-5) (redroot pigweed [9]; 320 g/ha): 5 (Herbicidal rate of 90% or more (almost completely withered)); herbicidal effect on R: persian speedwell (evaluation grade 0-5) (persian speedwell [10]; 320 g/ha): 5 (Herbicidal rate of 90% or more (almost completely withered)); herbicidal effect on I: wild oat (evaluation grade 0-5) (wild oat [12]; 320 g/ha): 0 (Herbicidal rate of 5% or less (almost no effect)); herbicidal effect on H: barnyard grass (evaluation grade 0-5) (barnyard grass [15]; 320 g/ha): 5 (Herbicidal rate of 90% or more (almost completely withered)); herbicidal effect on O: lambsquarters (evaluation grade 0-5) (lambsquarters [20]; 320 g/ha): 3 (Herbicidal rate of 40% or more and less than 70%); herbicidal effect on K: Italian ryegrass (evaluation grade 0-5) (Italian ryegrass [22]; 320 g/ha): 0 (Herbicidal rate of 5% or less (almost no effect)); herbicidal effect on M: velvetleaf (evaluation grade 0-5) (velvetleaf [23]; 320 g/ha): 5 (Herbicidal rate of 90% or more (almost completely withered))
CCCC(=O)Oc1c(C)nn(C)c(=O)c1-c1c(-c2ccc(OC(F)(F)F)cc2)sc2c(Cl)cccc12 [4-079] | 0 (Herbicidal rate of 5% or less (almost no effect)) | 2 (Herbicidal rate of 20% or more and less than 40%) | 0 (Herbicidal rate of 5% or less (almost no effect)) | 2 (Herbicidal rate of 20% or more and less than 40%) | 2 (Herbicidal rate of 20% or more and less than 40%) | 0 (Herbicidal rate of 5% or less (almost no effect)) | 0 (Herbicidal rate of 5% or less (almost no effect)) | 0 (Herbicidal rate of 5% or less (almost no effect)) | 0 (Herbicidal rate of 5% or less (almost no effect)) | 0 (Herbicidal rate of 5% or less (almost no effect)) | 3 (Herbicidal rate of 40% or more and less than 70%) | 0 (Herbicidal rate of 5% or less (almost no effect)) | 2 (Herbicidal rate of 20% or more and less than 40%) | 0 (Herbicidal rate of 5% or less (almost no effect)) | 0 (Herbicidal rate of 5% or less (almost no effect)) | 0 (Herbicidal rate of 5% or less (almost no effect)) | 2 (Herbicidal rate of 20% or more and less than 40%) | 0 (Herbicidal rate of 5% or less (almost no effect)) | Herbicidal effect by foliage application, G: green foxtail (green foxtail [1]; [26]): 0 (Herbicidal rate of 5% or less (almost no effect)); Herbicidal effect by foliage application, F: southern crabgrass (southern crabgrass [3]; [26]): 0 (Herbicidal rate of 5% or less (almost no effect)); Herbicidal effect by foliage application, J: blackgrass (blackgrass [4]; [26]): 0 (Herbicidal rate of 5% or less (almost no effect)); Herbicidal effect by foliage application, P: chickweed (chickweed [5]; [26]): 5 (Herbicidal rate of 90% or more (almost completely withered)); Herbicidal effect by foliage application, L: windgrass (windgrass [7]; [26]): 3 (Herbicidal rate of 40% or more and less than 70%); Herbicidal effect by foliage application, N: redroot pigweed (redroot pigweed [9]; [26]): 3 (Herbicidal rate of 40% or more and less than 70%); Herbicidal effect by foliage application, R: persian speedwell (persian speedwell [10]; [26]): 5 (Herbicidal rate of 90% or more (almost completely withered)); Herbicidal effect by foliage application, I: wild oat (wild oat [12]; [26]): 0 (Herbicidal rate of 5% or less (almost no effect)); Herbicidal effect by foliage application, H: barnyard grass (barnyard grass [15]; [26]): 0 (Herbicidal rate of 5% or less (almost no effect)); Herbicidal effect by foliage application, O: lambsquarters (lambsquarters [20]; [26]): 3 (Herbicidal rate of 40% or more and less than 70%); Herbicidal effect by foliage application, K: Italian ryegrass (Italian ryegrass [22]; [26]): 0 (Herbicidal rate of 5% or less (almost no effect)); Herbicidal effect by foliage application, M: velvetleaf (velvetleaf [23]; [26]): 4 (Herbicidal rate of 70% or more and less than 90%)
